Blank lines part the entries; values can stand above or below the compound they belong to.
Assays:
[1] = target: T1, Nuclear receptor ROR-gamma (Homo sapiens, UniProt P51449); test: Inverse agonist activity at APC-labeled biotinylated RORgammat LBD (unknown origin) assessed as inhibition of N-(2-chloro-6-fluorobenzyl)-N-((20-methoxy-[1,10-biphenyl]-4-yl)methyl)benzenesulfonamide-induced co-activator europium-labeled biotinylated SRC1 peptide recruitment after 1 hr by LANCE-FRET assay
T1 sequence (P51449 whole entry): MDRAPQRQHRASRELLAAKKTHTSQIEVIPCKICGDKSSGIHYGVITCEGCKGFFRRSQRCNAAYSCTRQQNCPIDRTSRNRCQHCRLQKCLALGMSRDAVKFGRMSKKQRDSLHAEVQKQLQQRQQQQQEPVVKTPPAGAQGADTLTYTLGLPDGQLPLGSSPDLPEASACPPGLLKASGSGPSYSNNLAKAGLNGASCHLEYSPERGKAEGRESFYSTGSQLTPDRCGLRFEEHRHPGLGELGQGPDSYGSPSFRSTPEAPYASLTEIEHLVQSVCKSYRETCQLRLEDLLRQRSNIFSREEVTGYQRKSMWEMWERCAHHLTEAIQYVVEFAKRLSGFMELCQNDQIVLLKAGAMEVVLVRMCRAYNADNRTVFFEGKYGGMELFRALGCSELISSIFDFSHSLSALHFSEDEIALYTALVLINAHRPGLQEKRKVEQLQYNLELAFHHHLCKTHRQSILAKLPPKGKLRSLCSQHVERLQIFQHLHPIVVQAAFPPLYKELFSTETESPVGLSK

[2] = target: T2, Nuclear receptor ROR-gamma (Mus musculus, UniProt P51450); test: Inverse agonist activity at RORgammat in mouse CD4 positive T cells assessed as inhibition of Th17 cell differentiation by measuring IL-17 release after 4 days by cellular staining based flow cytometry
T2 sequence (P51450 whole entry): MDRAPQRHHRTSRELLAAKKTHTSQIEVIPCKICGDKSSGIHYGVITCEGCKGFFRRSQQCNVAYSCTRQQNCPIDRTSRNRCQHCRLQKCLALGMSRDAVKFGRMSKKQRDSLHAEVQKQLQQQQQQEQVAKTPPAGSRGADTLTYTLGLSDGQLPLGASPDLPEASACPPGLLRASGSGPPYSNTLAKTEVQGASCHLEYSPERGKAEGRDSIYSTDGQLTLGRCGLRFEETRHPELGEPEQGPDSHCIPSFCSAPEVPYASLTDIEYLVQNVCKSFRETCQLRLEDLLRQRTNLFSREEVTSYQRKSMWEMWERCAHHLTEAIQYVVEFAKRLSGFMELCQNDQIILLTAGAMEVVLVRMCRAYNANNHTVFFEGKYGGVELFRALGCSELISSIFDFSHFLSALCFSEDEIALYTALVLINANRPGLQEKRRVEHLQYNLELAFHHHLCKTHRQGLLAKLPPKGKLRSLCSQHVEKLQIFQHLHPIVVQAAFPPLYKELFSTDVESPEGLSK

IC50 [1]: Not Active
Compound: N#Cc1cccc(C(=O)Nc2cccc3c2ccn3C2CCN(C(=O)C3CCCC3)CC2)c1

IC50 [2]: Not Active
Compound: N#Cc1cccc(C(=O)Nc2ccc3c(c2)[C@H](N2CC4CCC(C2)N4C(=O)C2CCCCC2)CC3)c1

IC50 ([1]; read-out: IC50): > 10 µM
Compound: O=C(CC1CCOCC1)Nc1cccc2c1CCC2N1CC2CCC(C1)N2C(=O)C1CCCC1 (stereo not drawn)
